The values that follow come from ChEMBL document CHEMBL4130573, “Antitubercular and Cytotoxic Chlorinated seco-Cyclohexenes from Uvaria alba” (J Nat Prod, 2017).

The test system of one assay is HUVEC. As to the kind of experiment: Antiproliferative activity against HUVEC cells by Cell-titer blue assay. The format is functional, cell-based. The settings on record: Homo sapiens.
Assay [1] has as its system Mycobacterium tuberculosis. Nature of the assay: Antitubercular activity against Mycobacterium tuberculosis H37Rv by MABA method. The format is functional. A general note: Resazurin is reduced to fluorescent resorufin, in cell work by metabolically active cells.
The next assay relates to K562. As to the kind of experiment: Antiproliferative activity against human K562 cells by Cell-titer blue assay. The class given is functional, cell-based.
The subject of assay [2] is HeLa. Nature of the assay: Cytotoxic activity against human HeLa cells by Cell-titer blue assay. The class given is functional, cell-based.
The test system of assay [3] is HeLa. Nature of the assay: Cytostatic activity against human HeLa cells at 1 to 50 uM by Cell-titer blue assay. The class given is functional, cell-based.

pIC50: −log10 of the molar value. In brackets after ≈: the same amount, converted by molar mass. Activity calls are given as the source filed them. No cut-off for these calls is given here.

What is called pIC50 is the negative decadic logarithm of the IC50, by convention in mol/L. High values mean a low IC50, low ones a high IC50. In general, MIC refers to the least concentration at which growth counts as inhibited. A lower MIC goes with a more susceptible organism. Turning to `O=C(OC/C=C\[C@H](Cl)[C@@](O)(CO)COC(=O)c1ccccc1)c1ccccc1` (relative stereo), the negative-log IC50 (pIC50) in the assay on HUVEC, in the assay on K562 and with HeLa [2] was less than 4.35 each time. In assay [1], this compound showed a minimum inhibitory concentration (MIC) of 38 µM (≈ 15.4 µg/mL).
On to `CC(=O)OC/C(=C\[C@@H](Cl)[C@H](O)COC(=O)c1ccccc1)COC(=O)c1ccccc1`, for which the outcome in the assay on HeLa [3] was Active. The compound also gave a minimal inhibitory concentration (MIC) in assay [1] of 26 µM (≈ 11.6 µg/mL).
Turning to `CC(=O)O[C@@H]1C(=O)C=COC=C1COC(=O)c1ccccc1`, the pIC50 in the assay on HUVEC is 5.00; with K562, 5.10; with HeLa [2] it was 4.59. This compound displayed an MIC in assay [1] of 25 µM (≈ 7.56 µg/mL).
